Experimental data: US20130261024A1, “System for Identifying Connections Between Perturbagens and Genes Associated with a Skin Hyperpigmentation Condition” (THE PROCTER & GAMBLE COMPANY, priority 2012, published 2013)

Columns and labels:
[1] = tested on: teleomerized human keratinocytes (tKC); assay: C-map query with the Retinoic Acid/Keratinocyte 200 benchmark signature; format: cell-based; conditions: Retinoic Acid Keratinocyte RA-200 signature
Procedure: (§1) Individual experiments (referred to as batches) generally comprise 30 to 96 samples analyzed using Affymetrix GeneChip® technology platforms, containing 6 replicates of the vehicle control (e.g., DSMO), 2 replicate samples of a positive control that gives a strong reproducible effect in the cell type used, and samples of the test material/perturbagen. Replication of the test material is done in separate batches due to batch effects. In vitro testing was performed in 6-well plates to provide sufficient RNA for GeneChip® analysis (2-4 μg total RNA yield/well).
(§2) Human telomerized keratinocytes (tKC) were obtained from the University of Texas, Southwestern Medical Center, Dallas, Tex. tKC cells were grown in EpiLife® media with 1× Human Keratinocyte Growth Supplement (Invitrogen, Carlsbad, Calif.) on collagen I coated cell culture flasks and plates (Becton Dickinson, Franklin Lakes, N.J.). Keratinocytes were seeded into 6-well plates at 20,000 cells/cm^2 24 hours before chemical exposure. […]
(a) Tert-keratinocytes (tKC) RA Signatures. […] Cells were treated with 1 uM tRA for 6 hr, tested in triplicate, with triplicate DMSO controls, and analyzed on HG-U133A GeneChips. […]

[2] = tested on: tert-Keratinocyte (tKC) cells; assay: C-map query with the composite "skin tone" benchmark signature (Niacinamide, Sepiwhite, NAG, Hexamidine); format: cell-based, human; conditions: composite signature of Example 3
Procedure: as §1
as §2, with “exposure. Human skin fibroblasts (BJ cell line from ATCC, Manassas, Va.) were grown in Eagle's Minimal Essential Medium (ATCC) supplemented with 10% fetal bovine serum (HyClone, Logan, Utah) in normal cell culture flasks and plates (Corning, Lowell, Mass.). BJ fibroblasts were seeded into 6-well plates at 12,000 cells/cm^2 24 hours before chemical exposure.” for “exposure.”

[3] = tested on: hyperpigmented spots; assay: 9-week randomized, double-blind, vehicle-controlled, split-face tone benefit clinical study; format: in vivo, Chinese females; conditions: 0.05% in SC-99 vehicle
Excerpt: This Example provides evidence of the advantages of using composite signatures and illustrates clinical affirmation of the C-map model for predicting efficacy of skin-lightening agents. This Example supports embodiments related to composite signatures (as described at the end of Example 3). An illustrative “Skin Tone” Signature developed from a genomics study using a composite skin-lightening benchmark agent signature is derived from Niacinamide, Hexamidine, Sepiwhite, and NAG. The signature is used to query C-map and generate a list of potential skin-lightening agents. A top hit, Chlorhexidine Diactate (CD) is entered into clinical testing for confirmation of efficacy. The control for clinical efficacy is a 5% Niacinamide+1% Sepiwhite formulation in the control vehicle.
Primary endpoints are changes in color spot area fraction (image analysis) and melanin spot area fraction (NC2) from baseline. Secondary endpoints are changes from baseline in L*a*b (color image analysis), mean melanin gray scale (NC2), and melanin evenness (NC2). Texture area fraction and pore area fraction are also evaluated to explore impact on other aspects relating to overall skin tone. […] Statistically significant superiority to the high efficacy benchmark skin active agent to vehicle performance is the clinical success criteria.
Study Design: The experimental protocol included a 9-week (1-week preconditioning & 8-week treatment), randomized, double-blind, round robin, vehicle-controlled, split-face tone benefit study. The subject population included 330 Chinese females, 25-55 years old with hyperpigmented spots. 318 subjects completed the entire study. […] Olay Complete SPF 15 UV Moisturizing Lotion is concomitantly used during pre-conditioning and treatment. 0.5 g each test product per half-face (forehead to jaw line; ˜4 mg/cm^2) is dosed 2× a day (morning/evening). Color SAF and treatment area, Melanin SAF, gray scale, evenness by NC2, and additional measurement of Fine Lines and Wrinkle and Texture are by REAL 3.01A. Data collection points include baseline, and ends of weeks 4, 6 and 8. The tested hypothesis is that there is no difference in clinical endpoint versus the benchmark composition treatment. Study site is Kuntai Clinical Center, Beijing, China and study time frame is February 2010 (pre-conditioning) to April 2010.

SMILES | average C-map score [1] | connectivity to tone composite benchmark signature query [2] | Pore area fraction ([3]; compared to vehicle, week 8) | Texture area fraction ([3]; compared to vehicle, week 8) | spot area fraction color test ([3]; compared to vehicle, week 8) | spot area fraction NC2 test ([3]; compared to vehicle, weeks 6 and 8) | Basal skin tone ([3]; versus vehicle, week 8) | NC2 Melanin evenness test ([3]; versus vehicle, weeks 6 and 8)
CC1=C(/C=C/C(C)=C/C=C/C(C)=C/C(=O)O)C(C)(C)CCC1 [Retinoic acid, all-trans-retinoic acid] | highest score of the materials tested |  |  |  |  |  |  | 
CC(=O)O.CC(=O)O.NC(=N\CCCCCC/N=C(N)/N=C(\N)Nc1ccc(Cl)cc1)/N=C(\N)Nc1ccc(Cl)cc1 [CD, Chlorhexidine Diacetate] |  | top connectivity hit | superior efficacy | superior efficacy | significantly fewer spots | significantly reduced fraction | superiority | superiority to the vehicle
